In patent publication EP1799188B1, “USE OF PEPTIDES AS AN ANTIOXIDANT AGENT FOR THE PREPARATION OF A COSMETIC AND/OR PHARMACEUTICAL COMPOSITION” (Ashland Specialties France, priority 2004, dated 2015):

Tested on: fibroblastes primaires
Test: Neutral red uptake cytotoxicity / cell viability test
Type: cell-based
Conditions: actif 1 %
Method: Des fibroblastes primaires sont ensemencés sur une plaque 96 puits (à 20000 cellules par puits environ). Une fois que les cellules ont atteint 70 % de confluence, le dipeptide dimérisé Cys-Gly selon l'invention, dilué à 1 %, est appliqué sur la plaque durant 24 heures. Une moitié de la plaque est alors irradiée par des UVB à 100 mJ/cm^2 et l'autre moitié non irradiée. Les cellules sont ensuite remises en culture pendant 24 h en présence de l'actif, puis incubées en présence de rouge neutre.
Le rouge neutre (un colorant « supravital ») se fixe spécifiquement aux lysosomes des cellules vivantes, la coloration sera ainsi proportionnelle à la viabilité des cellules. Après l'ajout d'une solution de révélation, solubilisant le rouge neutre, l'absorbance est mesurée à 540 nm.
Les résultats obtenus, représentés dans le tableau ci-dessous, représentent le pourcentage de viabilité cellulaire en fonction des différentes conditions étudiées, par rapport à la condition contrôle.

## N[C@@H](CSSC[C@H](N)C(=O)NCC(=O)O)C(=O)NCC(=O)O [actif]
  cytotoxicité (nocivité pour les cellules): n'est pas nocif pour les cellules
